± gives the standard deviation of the averaged measurements.
Columns and labels:
Assay in all cases: maximal % inhibition of viability relative to DMSO; higher = stronger effect
UT-SCC-28 = conditions: culture condition: plastic 2D (no matrix); treatment time: 3 days
Method: (§1)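 HNSCC cell lines (500 cells/well, 384-well) were cultured on plastic, on top of (2D) or embedded (3D) in Matrigel or human leiomyoma matrix Myogel (500 ug/mL; Myogel 3D mixed with rat collagen I). Cells were treated for 3 days with 5 ten-fold concentrations of each drug, and viability was read by CellTiter-Glo. Viability was normalised to DMSO and benzethonium chloride controls and fitted with the FIMM DSRT pipeline to give IC50 (nM), maximal % inhibition and DSS. Suffixes _1/_2/_3 are replicates. Only inhibition-mode (IC50) fits are kept.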

UT-SCC-8 = conditions: treatment time: 3 days
Method: as §1

UT-SCC-42A = conditions: treatment time: 3 days
Method: as §1

UT-SCC-14 = conditions: treatment time: 3 days
Method: as §1

UT-SCC-44 = conditions: treatment time: 3 days
Method: as §1

UT-SCC-106A = conditions: treatment time: 3 days
Method: as §1

UT-SCC-42B = conditions: treatment time: 3 days
Method: as §1

UT-SCC-73 = conditions: treatment time: 3 days
Method: as §1

UT-SCC-40 = conditions: treatment time: 3 days
Method: as §1

[1] = culture condition: embedded in Matrigel
[2] = culture condition: embedded in Myogel + collagen I
[3] = culture condition: on top of Matrigel
[4] = culture condition: on top of Myogel
[5] = culture condition: plastic 2D (no matrix)

SMILES: CO[C@H]1C[C@@H]2CC[C@@H](C)[C@@](O)(O2)C(=O)C(=O)N2CCCC[C@H]2C(=O)O[C@H]([C@H](C)C[C@@H]2CC[C@@H](OC(=O)C(C)(CO)CO)[C@H](OC)C2)CC(=O)[C@H](C)/C=C(\C)[C@@H](O)[C@@H](OC)C(=O)[C@H](C)C[C@H](C)/C=C/C=C/C=C/1C [Temsirolimus]
- maximal % inhibition of viability (UT-SCC-28): 35.3 ± 4.3%
- maximal % inhibition of viability (UT-SCC-8; [1]): 41.8 ± 4.6%
- maximal % inhibition of viability (UT-SCC-8; [2]): 31.4 ± 11%
- maximal % inhibition of viability (UT-SCC-8; [3]): 38.9 ± 9.9%
- maximal % inhibition of viability (UT-SCC-8; [4]): 48.1 ± 8.7%
- maximal % inhibition of viability (UT-SCC-8; [5]): 42.3 ± 5.6%
- maximal % inhibition of viability (UT-SCC-42A; [1]): 35 ± 6.8%
- maximal % inhibition of viability (UT-SCC-42A; [2]): 39.1 ± 4.7%
- maximal % inhibition of viability (UT-SCC-42A; [3]): 41 ± 2.4%
- maximal % inhibition of viability (UT-SCC-42A; [4]): 37.4 ± 3.1%
- maximal % inhibition of viability (UT-SCC-42A; [5]): 39.6 ± 2.3%
- maximal % inhibition of viability (UT-SCC-14; [1]): 53.5 ± 4.4%
- maximal % inhibition of viability (UT-SCC-14; [2]): 52.5 ± 4.8%
- maximal % inhibition of viability (UT-SCC-14; [3]): 50.5 ± 2.5%
- maximal % inhibition of viability (UT-SCC-14; [4]): 45.4 ± 4.4%
- maximal % inhibition of viability (UT-SCC-14; [5]): 46.3 ± 8.9%
- maximal % inhibition of viability (UT-SCC-44; [1]): 29.4 ± 1.9%
- maximal % inhibition of viability (UT-SCC-44; [2]): 38.9 ± 6.9%
- maximal % inhibition of viability (UT-SCC-44; [3]): 38.4 ± 1.5%
- maximal % inhibition of viability (UT-SCC-44; [4]): 38.6 ± 4%
- maximal % inhibition of viability (UT-SCC-44; [5]): 35 ± 1.3%
- maximal % inhibition of viability (UT-SCC-106A; [1]): 36.2 ± 2.6%
- maximal % inhibition of viability (UT-SCC-106A; [2]): 33.9 ± 5.5%
- maximal % inhibition of viability (UT-SCC-106A; [3]): 36.4 ± 0.4%
- maximal % inhibition of viability (UT-SCC-106A; [4]): 25.1 ± 1.4%
- maximal % inhibition of viability (UT-SCC-106A; [5]): 39.8 ± 5%
- maximal % inhibition of viability (UT-SCC-42B; [1]): 25.8 ± 20%
- maximal % inhibition of viability (UT-SCC-42B; [3]): 17.6 ± 6.1%
- maximal % inhibition of viability (UT-SCC-42B; [4]): 9.87 ± 4.1%
- maximal % inhibition of viability (UT-SCC-42B; [5]): 15.3 ± 3.6%
- maximal % inhibition of viability (UT-SCC-73; [1]): 32 ± 6.7%
- maximal % inhibition of viability (UT-SCC-73; [2]): 38.7 ± 21%
- maximal % inhibition of viability (UT-SCC-73; [3]): 29.7 ± 3.1%
- maximal % inhibition of viability (UT-SCC-73; [4]): 34.5 ± 1.6%
- maximal % inhibition of viability (UT-SCC-73; [5]): 24 ± 6.6%
- maximal % inhibition of viability (UT-SCC-40; [1]): 33.9 ± 13%
- maximal % inhibition of viability (UT-SCC-40; [2]): 40.5 ± 20%
- maximal % inhibition of viability (UT-SCC-40; [3]): 24.6 ± 6.1%
- maximal % inhibition of viability (UT-SCC-40; [4]): 21.9 ± 3.2%
- maximal % inhibition of viability (UT-SCC-40; [5]): 22.1 ± 2.3%
